# Assay results published in patent publication US11959086B2, “Dual transit peptides for targeting polypeptides” (BASF AGRO B.V., priority 2016, dated 2024).
# How the values were obtained:
# Assay in all cases: Herbicide injury evaluation of Arabidopsis plants, greenhouse
# Assay type in all cases: in vivo
# [1] = tested on: transgenic Arabidopsis thaliana, transgene SEQ ID NO 128; details: Table 3, scale 0-100
# [2] = tested on: transgenic Arabidopsis thaliana, transgene SEQ ID NO 118; details: scale 0-100
# [3] = tested on: transgenic Arabidopsis thaliana, transgene SEQ ID NO 120; details: Table 4, scale 0-100
# [4] = tested on: Wildtype/non-transgenic Arabidopsis thaliana; details: scale 0-100
# [5] = tested on: transgenic Arabidopsis thaliana, transgene SEQ ID NO 117; details: Table 3, scale 0-100
# [6] = tested on: transgenic Arabidopsis thaliana, transgene SEQ ID NO 121; details: Table 3, scale 0-100
smiles,measurement,setting,value
"C#CCN1C(=O)COc2cc(F)c(N3C(=O)C4=C(CCCC4)C3=O)cc21 [Flumioxazin, flumioxazin]",Herbicide injury evaluation 14 days after herbicide treatment,"[1]; SEQ ID NO 128 D, 140 g ai/ha + 1% MSO",100
same,Herbicide injury evaluation 14 days after herbicide treatment,"[1]; SEQ ID NO 128 D, 280 g ai/ha + 1% MSO",94
same,Herbicide injury evaluation 14 days after herbicide treatment,"[1]; SEQ ID NO 128 D, 420 g ai/ha + 1% MSO",93
same,Herbicide injury evaluation 14 days after herbicide treatment,"[1]; SEQ ID NO 128 E, 140 g ai/ha + 1% MSO",93
same,Herbicide injury evaluation 14 days after herbicide treatment,"[1]; SEQ ID NO 128 E, 280 g ai/ha + 1% MSO",99
same,Herbicide injury evaluation 14 days after herbicide treatment,"[1]; SEQ ID NO 128 E, 420 g ai/ha + 1% MSO",100
same,Herbicide injury evaluation 14 days after herbicide treatment,"[2]; Table 3, SEQ ID NO 118 Q, 140 g ai/ha + 1% MSO",48
same,Herbicide injury evaluation 14 days after herbicide treatment,"[2]; Table 3, SEQ ID NO 118 Q, 280 g ai/ha + 1% MSO",60
same,Herbicide injury evaluation 14 days after herbicide treatment,"[2]; Table 3, SEQ ID NO 118 Q, 420 g ai/ha + 1% MSO",60
same,Herbicide injury evaluation 14 days after herbicide treatment,"[2]; Table 3, SEQ ID NO 118 R, 140 g ai/ha + 1% MSO",23
same,Herbicide injury evaluation 14 days after herbicide treatment,"[2]; Table 3, SEQ ID NO 118 R, 280 g ai/ha + 1% MSO",28
same,Herbicide injury evaluation 14 days after herbicide treatment,"[2]; Table 3, SEQ ID NO 118 R, 420 g ai/ha + 1% MSO",28
same,Herbicide injury evaluation 14 days after herbicide treatment,"[2]; Table 4, SEQ ID NO 118 Q, 140 g ai/ha + 1% MSO",60
same,Herbicide injury evaluation 14 days after herbicide treatment,"[2]; Table 4, SEQ ID NO 118 Q, 280 g ai/ha + 1% MSO",65
same,Herbicide injury evaluation 14 days after herbicide treatment,"[2]; Table 4, SEQ ID NO 118 Q, 420 g ai/ha + 1% MSO",70
same,Herbicide injury evaluation 14 days after herbicide treatment,"[2]; Table 4, SEQ ID NO 118 R, 140 g ai/ha + 1% MSO",63
same,Herbicide injury evaluation 14 days after herbicide treatment,"[2]; Table 4, SEQ ID NO 118 R, 280 g ai/ha + 1% MSO",60
same,Herbicide injury evaluation 14 days after herbicide treatment,"[2]; Table 4, SEQ ID NO 118 R, 420 g ai/ha + 1% MSO",35
same,Herbicide injury evaluation 14 days after herbicide treatment,"[3]; SEQ ID NO 120 J, 140 g ai/ha + 1% MSO",95
same,Herbicide injury evaluation 14 days after herbicide treatment,"[3]; SEQ ID NO 120 J, 280 g ai/ha + 1% MSO",85
same,Herbicide injury evaluation 14 days after herbicide treatment,"[3]; SEQ ID NO 120 J, 420 g ai/ha + 1% MSO",95
same,Herbicide injury evaluation 14 days after herbicide treatment,"[3]; SEQ ID NO 120 M, 140 g ai/ha + 1% MSO",75
same,Herbicide injury evaluation 14 days after herbicide treatment,"[3]; SEQ ID NO 120 M, 280 g ai/ha + 1% MSO",98
same,Herbicide injury evaluation 14 days after herbicide treatment,"[3]; SEQ ID NO 120 M, 420 g ai/ha + 1% MSO",98
same,Herbicide injury evaluation 14 days after herbicide treatment,"[4]; Table 3, 140 g ai/ha + 1% MSO",100
same,Herbicide injury evaluation 14 days after herbicide treatment,"[4]; Table 3, 280 g ai/ha + 1% MSO",100
same,Herbicide injury evaluation 14 days after herbicide treatment,"[4]; Table 3, 420 g ai/ha + 1% MSO",100
same,Herbicide injury evaluation 14 days after herbicide treatment,"[4]; Table 4, 140 g ai/ha + 1% MSO",100
same,Herbicide injury evaluation 14 days after herbicide treatment,"[4]; Table 4, 280 g ai/ha + 1% MSO",100
same,Herbicide injury evaluation 14 days after herbicide treatment,"[4]; Table 4, 420 g ai/ha + 1% MSO",100
same,Herbicide injury evaluation 14 days after herbicide treatment,"[5]; SEQ ID NO 117 C, 140 g ai/ha + 1% MSO",94
same,Herbicide injury evaluation 14 days after herbicide treatment,"[5]; SEQ ID NO 117 C, 280 g ai/ha + 1% MSO",95
same,Herbicide injury evaluation 14 days after herbicide treatment,"[5]; SEQ ID NO 117 C, 420 g ai/ha + 1% MSO",95
same,Herbicide injury evaluation 14 days after herbicide treatment,"[5]; SEQ ID NO 117 I, 140 g ai/ha + 1% MSO",90
same,Herbicide injury evaluation 14 days after herbicide treatment,"[5]; SEQ ID NO 117 I, 280 g ai/ha + 1% MSO",94
same,Herbicide injury evaluation 14 days after herbicide treatment,"[5]; SEQ ID NO 117 I, 420 g ai/ha + 1% MSO",97
same,Herbicide injury evaluation 14 days after herbicide treatment,"[6]; SEQ ID NO 121 G, 140 g ai/ha + 1% MSO",100
same,Herbicide injury evaluation 14 days after herbicide treatment,"[6]; SEQ ID NO 121 G, 280 g ai/ha + 1% MSO",100
same,Herbicide injury evaluation 14 days after herbicide treatment,"[6]; SEQ ID NO 121 G, 420 g ai/ha + 1% MSO",100
same,Herbicide injury evaluation 14 days after herbicide treatment,"[6]; SEQ ID NO 121 H, 140 g ai/ha + 1% MSO",100
same,Herbicide injury evaluation 14 days after herbicide treatment,"[6]; SEQ ID NO 121 H, 280 g ai/ha + 1% MSO",100
same,Herbicide injury evaluation 14 days after herbicide treatment,"[6]; SEQ ID NO 121 H, 420 g ai/ha + 1% MSO",100
